Where two headings read alike, the source gives them in different places.

By IC50 is commonly meant the concentration needed to halve the response being measured.

Test [1] relates to HT-29 cells (human colon carcinoma cell line). Briefly: MTT anti-proliferation assay on HT-29 cells. In kind it is cell-based. The settings on record: 384 well plates, 5 days, read-out: IC50 HT29 384. An excerpt: MTT (3-(4,5-dimethylthiazol-2-yl)-2,5-diphenyl tetrazolium bromide) is widely used for the quantitative determination of cytotoxic effects or in vitro chemosensitivity of tumor cells. The assay is based on the cleavage of the yellow tetrazolium salt (MTT) to purple formazan crystals by metabolic active cells. For details, see Rubinstein, L. V., et al., J. Natl. Cancer Inst. 82 (1990) 1113.
We proceeded as follows: HT-29 cells (human colon carcinoma cell line) were cultivated in RPMI 1640, 2.5% FCS, 2 mM glutamine, 100 u/ml penicillin, 100 ug/ml streptomycin. For the assay the cells were seeded in 384 well plates, 900 cells per well, in the same medium. At the next day, the compounds (dissolved 10 mM in DMSO) were added in various concentrations ranging from 30 uM to 1.5 nM. After 5 days, the MTT assay was done mainly according to the instructions of the manufacturer (Cell proliferation kit I, MTT, from Roche Molecular Biochemicals). In brief: MTT labeling reagent was added to a final concentration of 0.5 mg/ml, added and incubated for 4 hrs at 37° C., 5% CO2. During this incubation time purple formazan crystals are formed. After addition of the solubilization solution (20% SDS in 0.02 M HCl) the plates were incubated overnight at 37° C., 5% CO2. After careful mixing, the plates were measured in Victor 2 (scanning multiwell spectrophotometer, Wallac) at 550 nm.
A decrease in number of living cells results in a decrease in the total metabolic activity in the sample. The decrease directly correlates to the amount of purple color resulting from the solubilization of the purple formazan crystals. Determination of IC50 was done using XL-fit.
In general terms: Formazan colour is commonly taken as a measure of viable cells.

The target in the next test is T1, recombinant HDAC-1 (Homo sapiens, UniProt Q13547).
T1 construct: made in house; host or cells: HEK 293 cells
As to the kind of experiment: HDAC biochemical quench assay. Particulars: recombinant HDAC-1 purified from HEK 293 cells, 1 uM peptide substrate, 90 min at room temperature. An excerpt:
The function of histone deacetylase (HDAC) is the deacetylation of lysines in e.g. histone H4. A peptide of 17 amino acids derived from histone H4 was labeled with TAMRA at the C-terminus and QSY-7 at the N-terminus and was used as a substrate (TAMRA-first17 aa of histone H4-QSY7). Following deacetylation by HDAC, the enzyme Lys C is able to cleave the peptide after lysine. […] Inhibition of HDAC by compounds results in low signals because Lys C could not cleave the substrate and the quench effect persists.
For dose response curves, 10 concentrations were diluted 1:3 starting at 30 uM. 10 ul compound dilution were put into each well of a 384 well plate. 10 ul HDAC were added (recombinant HDAC-1 purified from HEK 293 cells; enzyme activity has to be assessed for each preparation). 10 ul peptide substrate was added (1 uM final concentration, derived from 1 mM stock solution diluted 1:1000 in test buffer). After 90 min incubation at room temperature, the reaction was stopped by addition of 20 ul test buffer including 3 ug/ml Lys C and 0.075% SDS. After overnight incubation the fluorescence signal of TAMRA was measured (Victor 2 from Wallac, absorption 544 nm, emission 590 nm). The O.D. of DMSO-treated control wells is 100%, the % inhibition of compound treated wells is calculated in relation to 100%. Based on 10 concentrations a IC50 curve is generated by using XL.fit3.
Test buffer used: a mixture of 10 mM Hepes pH8, 10 mM NaCl, 10% Glycerol, 0.005% Triton X100, 0.1 mM EDTA, 0.1 mM TCEP. As plates were used 384 well plates (black, Greiner, 781077).

T1 sequence (Q13547 whole entry, species assumed): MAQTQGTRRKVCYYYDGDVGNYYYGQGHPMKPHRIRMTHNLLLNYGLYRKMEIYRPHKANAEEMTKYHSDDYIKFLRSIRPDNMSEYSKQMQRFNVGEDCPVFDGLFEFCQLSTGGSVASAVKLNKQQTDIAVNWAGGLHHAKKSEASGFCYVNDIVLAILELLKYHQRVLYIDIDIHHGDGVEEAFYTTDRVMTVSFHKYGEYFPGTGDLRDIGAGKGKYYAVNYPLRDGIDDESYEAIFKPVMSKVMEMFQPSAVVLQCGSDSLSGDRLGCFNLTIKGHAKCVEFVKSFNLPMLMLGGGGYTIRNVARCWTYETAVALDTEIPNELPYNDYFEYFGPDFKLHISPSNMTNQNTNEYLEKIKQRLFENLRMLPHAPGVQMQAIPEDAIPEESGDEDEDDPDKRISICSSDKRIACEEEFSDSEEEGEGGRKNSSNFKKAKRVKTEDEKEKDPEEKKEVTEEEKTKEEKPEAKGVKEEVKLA

Turning to `Cc1ccc([C@@H](C)NC(=O)c2ccc(C(=O)NO)s2)cc1` [Example 2a, (R)-thiophene-2,5-dicarboxylic acid 2-hydroxyamide 5-[(1-p-tolyl-ethyl)-amide]], the IC50 in test [1] (Homo sapiens, 120 h) is 190 nM; at recombinant HDAC-1, 3.41 nM. Consider `C[C@@H](NC(=O)c1ccc(C(=O)NO)s1)c1ccc(F)cc1` [Example 2b, (R)-thiophene-2,5-dicarboxylic acid 2-{[1-(4-fluoro-phenyl)-ethyl]-amide}5-hydroxyamide], for which the half-inhibitory concentration (IC50) worked out at 170 nM in test [1] (Homo sapiens, 120 h) and 4.98 nM at recombinant HDAC-1. For `C[C@@H](NC(=O)c1ccc(C(=O)NO)s1)c1ccc(Cl)cc1` [Example 2c, (R)-thiophene-2,5-dicarboxylic acid 2-{[1-(4-chloro-phenyl)-ethyl]-amide}5-hydroxyamide] the same measures were 50 nM and 3.44 nM. For `C[C@@H](NC(=O)c1ccc(C(=O)NO)s1)c1ccc(Br)cc1` [Example 2d, (R)-thiophene-2,5-dicarboxylic acid 2-{[1-(4-bromo-phenyl)-ethyl]-amide}5-hydroxyamide] the same measures were 80 nM and 3.88 nM. Taken in the same sequence, the figures for `C[C@@H](NC(=O)c1ccc(C(=O)NO)s1)c1cccc2ccccc12` [Example 2e, (R)-thiophene-2,5-dicarboxylic acid 2-hydroxyamide 5-[(1-naphthalen-1-yl-ethyl)-amide]] were 40 nM and 1.73 nM.

Consider `C[C@@H](NC(=O)c1ccc(C(=O)NO)s1)c1ccc2ccccc2c1` [Example 2f, (R)-thiophene-2,5-dicarboxylic acid 2-hydroxyamide 5-[(1-naphthalen-2-yl-ethyl)-amide]], for which the IC50 in test [1] (Homo sapiens, 120 h) was 10 nM; on recombinant HDAC-1 it was 4.97 nM. For `CC[C@@H](NC(=O)c1ccc(C(=O)NO)s1)c1ccccc1` [Example 2g, (R)-thiophene-2,5-dicarboxylic acid 2-hydroxyamide 5-[(1-phenyl-propyl)-amide]] the same measures were 60 nM and 1.18 nM.

In the case of `COc1cccc([C@@H](C)NC(=O)c2ccc(C(=O)NO)s2)c1` [Example 2h, (R)-thiophene-2,5-dicarboxylic acid 2-hydroxyamide 5-{[1-(3-methoxy-phenyl)-ethyl]-amide}], the IC50 in test [1] (Homo sapiens, 120 h) was found to be 70 nM; at recombinant HDAC-1, 1.31 nM. Taken in the same sequence, the figures for `COc1ccc([C@@H](C)NC(=O)c2ccc(C(=O)NO)s2)cc1` [Example 2i, (R)-thiophene-2,5-dicarboxylic acid 2-hydroxyamide 5-{[1-(4-methoxy-phenyl)-ethyl]-amide}] were 50 nM and 1.79 nM. Taken in the same sequence, the figures for `COC[C@H](NC(=O)c1ccc(C(=O)NO)s1)c1ccccc1` [Example 2l, (R)-thiophene-2,5-dicarboxylic acid 2-hydroxyamide 5-[(2-methoxy-1-phenyl-ethyl)-amide]] were 580 nM and 3.17 nM.

With `O=C(NO)c1ccc(C(=O)N[C@@H]2CCc3ccccc32)s1` [Example 2m, (R)-thiophene-2,5-dicarboxylic acid 2-hydroxyamide 5-indan-1-ylamide], the IC50 in test [1] (Homo sapiens, 120 h) is 300 nM; at recombinant HDAC-1, 1.38 nM.

For the compound `O=C(NO)c1ccc(C(=O)N[C@@H]2CCCc3ccccc32)s1` [Example 2n, (R)-thiophene-2,5-dicarboxylic acid 2-hydroxyamide 5-[(1,2,3,4-tetrahydro-naphthalen-1-yl)-amide]], the IC50 was determined as 350 nM in test [1] (Homo sapiens, 120 h) and 2.86 nM on recombinant HDAC-1.

Regarding `C[C@H](NC(=O)c1ccc(C(=O)NO)s1)c1ccccc1` [Example 4a, (S)-thiophene-2,5-dicarboxylic acid 2-hydroxyamide 5-[(1-phenyl-ethyl)-amide]], the IC50 in test [1] turned out to be 840 nM.

Turning to `C[C@H](NC(=O)c1ccc(C(=O)NO)s1)c1ccc(Cl)cc1` [Example 4c, (S)-thiophene-2,5-dicarboxylic acid 2-{[1-(4-chloro-phenyl)-ethyl]-amide}5-hydroxyamide], the IC50 in test [1] came to 840 nM. With `C[C@H](NC(=O)c1ccc(C(=O)NO)s1)c1ccc(Br)cc1` [Example 4d, (S)-thiophene-2,5-dicarboxylic acid 2-{[1-(4-bromo-phenyl)-ethyl]-amide}5-hydroxyamide], in test [1], the IC50 was found to be 880 nM. On the same count and under the same terms, then `C[C@H](NC(=O)c1ccc(C(=O)NO)s1)c1ccc2ccccc2c1` [Example 4f, (S)-thiophene-2,5-dicarboxylic acid 2-hydroxyamide 5-[(1-naphthalen-2-yl-ethyl)-amide]], with 920 nM. `CC[C@H](NC(=O)c1ccc(C(=O)NO)s1)c1ccccc1` [Example 4g, (S)-thiophene-2,5-dicarboxylic acid 2-hydroxyamide 5-[(1-phenyl-propyl)-amide]]: the IC50 was 780 nM in test [1] (Homo sapiens, 120 h) and 3.19 nM on recombinant HDAC-1. Consider `COc1cccc([C@H](C)NC(=O)c2ccc(C(=O)NO)s2)c1` [Example 4h, (S)-thiophene-2,5-dicarboxylic acid 2-hydroxyamide 5-{[1-(3-methoxy-phenyl)-ethyl]-amide}], for which the IC50 on recombinant HDAC-1 was 1.79 nM. Regarding `COc1ccc([C@H](C)NC(=O)c2ccc(C(=O)NO)s2)cc1` [Example 4i, (S)-thiophene-2,5-dicarboxylic acid 2-hydroxyamide 5-{[1-(4-methoxy-phenyl)-ethyl]-amide}], the IC50 in test [1] (Homo sapiens, 120 h) came out at 560 nM; at recombinant HDAC-1, 2.6 nM.

For the compound `COC[C@@H](NC(=O)c1ccc(C(=O)NO)s1)c1ccccc1` [Example 4l, (S)-thiophene-2,5-dicarboxylic acid 2-hydroxyamide 5-[(2-methoxy-1-phenyl-ethyl)-amide]], the IC50 in test [1] (Homo sapiens, 120 h) was found to be 160 nM; on recombinant HDAC-1 it was 4.04 nM. As to `O=C(NO)c1ccc(C(=O)N[C@H]2CCc3ccccc32)s1` [Example 4m, (S)-thiophene-2,5-dicarboxylic acid 2-hydroxyamide 5-indan-1-ylamide], the IC50 at recombinant HDAC-1 was 2.97 nM. For `O=C(NO)c1ccc(C(=O)N[C@H]2CCCc3ccccc32)s1` [Example 4n, (S)-thiophene-2,5-dicarboxylic acid 2-hydroxyamide 5-[(1,2,3,4-tetrahydro-naphthalen-1-yl)-amide]], the half-maximal inhibitory concentration (IC50) was 770 nM in test [1] (Homo sapiens, 120 h) and 0.8 nM at recombinant HDAC-1.

As to `C[C@@H](NC(=O)c1ccc(C(=O)NO)s1)c1cccs1` [Example 7, (R)-Thiophene-2,5-dicarboxylic Acid 2-hydroxyamide 5-[(1-thiophen-2-yl-ethyl)-amide]], the IC50 in test [1] (Homo sapiens, 120 h) was 60 nM; at recombinant HDAC-1, 1.66 nM. Taken in the same sequence, the figures for `O=C(NO)c1ccc(C(=O)N[C@@H](CN2CCOCC2)c2ccccc2)s1` [Example 8c, (R)-thiophene-2,5-dicarboxylic acid 2-hydroxyamide 5-[(2-morpholin-4-yl-1-phenyl-ethyl)-amide]] were 630 nM and 4.27 nM. For `C[C@@H](NC(=O)c1ccc(C(=O)NO)s1)c1ccc(C(F)(F)F)cc1` [Example 8d, (R)-thiophene-2,5-dicarboxylic acid 2-hydroxyamide 5-{[1-(4-trifluoromethyl-phenyl)-ethyl]-amide}] the same measures were 30 nM and 1.26 nM. As to `C[C@@H](NC(=O)c1ccc(C(=O)NO)s1)c1ccc(C(C)(C)C)cc1` [Example 8e, (R)-thiophene-2,5-dicarboxylic acid 2-{[1-(4-tert-butyl-phenyl)-ethyl]-amide}5-hydroxyamide], the IC50 stood at 10 nM in test [1] (Homo sapiens, 120 h) and 1.08 nM at recombinant HDAC-1. As for `O=C(NO)c1ccc(C(=O)N[C@H](CN2CCOCC2)c2ccccc2)s1` [Example 10c, (S)-thiophene-2,5-dicarboxylic acid 2-hydroxyamide 5-[(2-morpholin-4-yl-1-phenyl-ethyl)-amide]], on recombinant HDAC-1, the IC50 came out at 1.94 nM.

These data come from patent US7098241B2, “Thiophene hydroxamic acid derivatives” (Hoffmann-La Roche Inc., priority 2002, dated 2006).
